Patent publication US20240025922A1, “TETRAHYDROPYRIDO[3,4-d]PYRIMIDINES AS HPK1 INHIBITORS” (Merck Patent GmbH, priority 2022, published 2024)
Like-named read-outs stand apart in the source and are kept apart here.

Tests used:
[1] = target: full-length human HPK1 (MAP4K1) (Homo sapiens (Human), UniProt Q92918); experiment: HPK1 Kinase Assay (Biochemical Assay), ADP-Glo; conditions: GST-HPK1 3.2 nM, 10 μM ATP, MBP substrate, read-out: HPK1 enzymatic IC50
Method in brief: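 ADP-Glo luminescence after a 120-min kinase reaction gave percent inhibition and IC50. The enzyme was Sf21-expressed N-terminal GST full-length human HPK1 at 3.2 nM in HEPES pH 7.5 buffer with MgCl2, DTT, Brij-35 and BSA.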

[2] = target: HPK1 (SLP76 phosphorylation at Ser376 in Jurkat and EL-4 cells) (Homo sapiens, UniProt Q92918); assay type: cell-based
Method in brief: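 Phospho-SLP76 (Ser376) in lysates measured by AlphaLISA for human Jurkat and by 19 h HTRF for mouse EL-4, giving % inhibition and IC50. Compounds applied 60 min before αCD3/αCD28 bead stimulation at 37 °C, lasting 15 min (Jurkat) or 30 min (EL-4).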

[3] = αCD3/αCD28 Dynabeads stimulated cells, pSLP76 (Ser376) detection; read-out: HPK1 pSLP76 IC50
[4] = read-out: HPK1 pSLP76 IC50; αCD3/αCD28 Dynabeads stimulated cells, pSLP76 (Ser376) detection

HPK1 (SLP76 phosphorylation at Ser376 in Jurkat and EL-4 cells), sequence (Q92918 whole entry, looked up): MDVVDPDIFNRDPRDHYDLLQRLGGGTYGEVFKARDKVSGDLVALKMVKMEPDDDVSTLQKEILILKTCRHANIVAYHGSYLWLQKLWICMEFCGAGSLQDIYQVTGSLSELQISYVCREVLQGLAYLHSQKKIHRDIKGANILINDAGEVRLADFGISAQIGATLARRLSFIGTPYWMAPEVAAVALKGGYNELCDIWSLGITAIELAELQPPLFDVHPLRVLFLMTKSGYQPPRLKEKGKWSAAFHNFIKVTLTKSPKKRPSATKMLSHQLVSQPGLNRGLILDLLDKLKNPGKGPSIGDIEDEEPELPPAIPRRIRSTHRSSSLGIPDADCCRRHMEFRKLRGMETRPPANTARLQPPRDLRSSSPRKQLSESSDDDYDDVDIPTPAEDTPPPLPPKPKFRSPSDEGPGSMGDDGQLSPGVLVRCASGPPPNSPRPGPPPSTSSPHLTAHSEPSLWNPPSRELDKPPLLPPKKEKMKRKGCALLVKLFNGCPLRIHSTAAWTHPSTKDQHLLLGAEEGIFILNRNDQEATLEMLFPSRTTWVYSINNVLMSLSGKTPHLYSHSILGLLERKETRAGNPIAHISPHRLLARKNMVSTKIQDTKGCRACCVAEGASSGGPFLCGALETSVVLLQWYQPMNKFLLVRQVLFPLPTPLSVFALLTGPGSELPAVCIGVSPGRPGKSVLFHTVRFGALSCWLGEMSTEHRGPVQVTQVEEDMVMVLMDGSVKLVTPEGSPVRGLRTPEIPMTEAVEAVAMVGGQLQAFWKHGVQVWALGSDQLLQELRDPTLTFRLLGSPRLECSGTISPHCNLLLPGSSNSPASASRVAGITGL
full-length human HPK1 (MAP4K1), sequence (Q92918 whole entry): as the sequence (Q92918 whole entry, looked up) above

Compound	IC50 [1]	IC50 [2, 3]	IC50 [2, 4]
CS(=O)(=O)Cc1ccc(Nc2ncc3c(n2)CN(c2cnc4c(c2Cl)NCCO4)CC3)cc1 [Example 63, 7-{8-chloro-1H,2H,3H-pyrido[2,3-b][1,4]oxazin-7-yl}-N-[4-(methanesulfonylmethyl)phenyl]-5H,6H,7H,8H-pyrido[3,4-d]pyrimidin-2-amine]	< 100 nM	< 500 nM	
Cc1c(N2CCc3cnc(Nc4ccc(NCCN5CCOCC5)c(F)c4)nc3C2)cnc2c1NCCO2 [Example 6, 2-fluoro-N4-(7-{8-methyl-1H,2H,3H-pyrido[2,3-b][1,4]oxazin-7-yl}-5H,6H,7H,8H-pyrido[3,4-d]pyrimidin-2-yl)-N1-[2-(morpholin-4-yl)ethyl]benzene-1,4-diamine]	< 100 nM	< 500 nM	
Cc1c(N2CCc3cnc(Nc4ccnc(N5CCOCC5)c4)nc3C2)cnc2c1NCCO2 [Example 77, 7-(8-methyl-2,3-dihydro-1H-pyrido[2,3-b][1,4]oxazin-7-yl)-N-(2-morpholinopyridin-4-yl)-5,6,7,8-tetrahydropyrido[3,4-d]pyrimidin-2-amine]	< 100 nM	< 500 nM	
Cc1c(N2CCc3cnc(Nc4ccc(NC(=O)CN5CCOCC5)c(C(F)(F)F)c4)nc3C2)cnc2c1NCCO2 [Example 29, N-{4-[(7-{8-methyl-1H,2H,3H-pyrido[2,3-b][1,4]oxazin-7-yl}-5H,6H,7H,8H-pyrido[3,4-d]pyrimidin-2-yl)amino]-2-(trifluoromethyl)phenyl}-2-(morpholin-4-yl)acetamide]	< 100 nM	< 500 nM	
Cc1c(N2CCc3cnc(Nc4ccc5c(c4)C(C)(C)OC5)nc3C2)cnc2c1NCCO2 [Example 93, N-(3,3-dimethyl-1,3-dihydroisobenzofuran-5-yl)-7-(8-methyl-2,3-dihydro-1H-pyrido[2,3-b][1,4]oxazin-7-yl)-5,6,7,8-tetrahydropyrido[3,4-d]pyrimidin-2-amine]	< 100 nM		< 500 nM
Cc1cc(Nc2ncc3c(n2)CN(c2cnc4c(c2C)NCCO4)CC3)ccc1C(=O)NC1CN(C)C1 [Example 35, 2-methyl-4-[(7-{8-methyl-1H,2H,3H-pyrido[2,3-b][1,4]oxazin-7-yl}-5H,6H,7H,8H-pyrido[3,4-d]pyrimidin-2-yl)amino]-N-(1-methylazetidin-3-yl)benzamide]	< 100 nM	500 to 1000 nM	
Cc1c(N2CCc3cnc(Nc4ccc5c(c4)CN(C)C5=O)nc3C2)cnc2c1NCCO2 [Example 96, 2-methyl-5-((7-(8-methyl-2,3-dihydro-1H-pyrido[2,3-b][1,4]oxazin-7-yl)-5,6,7,8-tetrahydropyrido[3,4-d]pyrimidin-2-yl)amino)isoindolin-1-one]	< 100 nM		> 1000 nM
Cc1cc(Nc2ncc3c(n2)CN(c2cnc4c(c2C)NCCO4)CC3)ccc1NC(=O)CN1CCCC1 [Example 10, N-{2-methyl-4-[(7-{8-methyl-1H,2H,3H-pyrido[2,3-b][1,4]oxazin-7-yl}-5H,6H,7H,8H-pyrido[3,4-d]pyrimidin-2-yl)amino]phenyl}-2-(pyrrolidin-1-yl)acetamide]	< 100 nM	< 500 nM	
Cc1c(N2CCc3cnc(Nc4ccc5c(c4)COC5)nc3C2)cnc2c1NCCO2 [Example 92, N-(1,3-dihydroisobenzofuran-5-yl)-7-(8-methyl-2,3-dihydro-1H-pyrido[2,3-b][1,4]oxazin-7-yl)-5,6,7,8-tetrahydropyrido[3,4-d]pyrimidin-2-amine]	< 100 nM	500 to 1000 nM	
CN1CCc2ncc(Nc3ncc4c(n3)CN(c3cnc5c(c3)NCCO5)CC4)cc2C1 [Example 87, 7-(2,3-dihydro-1H-pyrido[2,3-b][1,4]oxazin-7-yl)-N-(6-methyl-5,6,7,8-tetrahydro-1,6-naphthyridin-3-yl)-5,6,7,8-tetrahydropyrido[3,4-d]pyrimidin-2-amine]	100 to 1000 nM	> 1000 nM	
Cc1c(N2CCc3cnc(Nc4ccnc(C(C)(C)O)c4)nc3C2)cnc2c1NCCO2 [Example 67, 2-{4-[(7-{8-methyl-1H,2H,3H-pyrido[2,3-b][1,4]oxazin-7-yl}-5H,6H,7H,8H-pyrido[3,4-d]pyrimidin-2-yl)amino]pyridin-2-yl}propan-2-ol]	< 100 nM	500 to 1000 nM	
Cc1c(N2CCc3cnc(Nc4cc5n(n4)CC(=O)N(C)CC5)cc3C2)cnc2c1NCCO2 [Example 68, 6-methyl-2-[(6-{8-methyl-1H,2H,3H-pyrido[2,3-b][1,4]oxazin-7-yl}-5,6,7,8-tetrahydro-2,6-naphthyridin-3-yl)amino]-4H,5H,6H,7H,8H-pyrazolo[1,5-d][1,4]diazepin-7-one]	< 100 nM	< 500 nM	
Cc1cc(Nc2cc3c(cn2)CCN(c2cnc4c(c2C)NCCO4)C3)ccc1NC(=O)CN(C)C [Example 33, 2-(dimethylamino)-N-{2-methyl-4-[(6-{8-methyl-1H,2H,3H-pyrido[2,3-b][1,4]oxazin-7-yl}-5,6,7,8-tetrahydro-2,6-naphthyridin-3-yl)amino]phenyl}acetamide]	< 100 nM	> 1000 nM	
Cc1c(N2CCc3cnc(Nc4ccc5c(c4)CN(C)C5)cc3C2)cnc2c1NCCO2 [Example 47, 6-{8-methyl-1H,2H,3H-pyrido[2,3-b][1,4]oxazin-7-yl}-N-(2-methyl-2,3-dihydro-1H-isoindol-5-yl)-5,6,7,8-tetrahydro-2,6-naphthyridin-3-amine]	< 100 nM	500 to 1000 nM	
Cc1c(N2CCc3cnc(Nc4ccc(N5CCC(O)CC5)nc4)nc3C2)cnc2c1NCCO2 [Example 102, 1-(5-((7-(8-methyl-2,3-dihydro-1H-pyrido[2,3-b][1,4]oxazin-7-yl)-5,6,7,8-tetrahydropyrido[3,4-d]pyrimidin-2-yl)amino)pyridin-2-yl)piperidin-4-ol]	< 100 nM		> 1000 nM
Cc1c(N2CCc3cnc(Nc4cnc5c(c4)CNCC5)nc3C2)cnc2c1NCCO2 [Example 108, 7-(8-methyl-2,3-dihydro-1H-pyrido[2,3-b][1,4]oxazin-7-yl)-N-(5,6,7,8-tetrahydro-1,6-naphthyridin-3-yl)-5,6,7,8-tetrahydropyrido[3,4-d]pyrimidin-2-amine]	< 100 nM	500 to 1000 nM	

The next lines start with results.

IC50 [1]	IC50 [2, 3]	Compound	IC50 [2, 4]
< 100 nM	< 500 nM	Cc1c(N2CCc3cnc(Nc4ccc(CS(C)(=O)=O)cc4)nc3C2)cnc2c1NCC1(CC1)O2 [Example 139, N-[4-(methanesulfonylmethyl)phenyl]-7-{8′-methyl-1′,2′-dihydrospiro[cyclopropane-1,3′-pyrido[2,3-b][1,4]oxazin]-7′-yl}-5H,6H,7H,8H-pyrido[3,4-d]pyrimidin-2-amine]	
< 100 nM	< 500 nM	Cc1c(N2CCc3cnc(Nc4ccc(CS(C)(=O)=O)cc4)nc3C2)cnc2c(F)c[nH]c12 [Example 138, 7-{3-fluoro-7-methyl-1H-pyrrolo[3,2-b]pyridin-6-yl}-N-[4-(methanesulfonylmethyl)phenyl]-5H,6H,7H,8H-pyrido[3,4-d]pyrimidin-2-amine]	
< 100 nM	< 500 nM	Cc1cc(Nc2cc3c(cn2)CCN(c2cnc4c(c2C)NCCO4)C3)ccc1CS(C)(=O)=O [Example 179, N-[4-(methanesulfonylmethyl)-3-methylphenyl]-6-{8-methyl-1H,2H,3H-pyrido[2,3-b][1,4]oxazin-7-yl}-5,6,7,8-tetrahydro-2,6-naphthyridin-3-amine]	
< 100 nM	500 to 1000 nM	COC1CCN(c2ccc(Nc3ncc4c(n3)CN(c3cnc5c(c3C)NCCO5)CC4)cc2)CC1 [Example 113, N-(4-(4-methoxypiperidin-1-yl)phenyl)-7-(8-methyl-2,3-dihydro-1H-pyrido[2,3-b][1,4]oxazin-7-yl)-5,6,7,8-tetrahydropyrido[3,4-d]pyrimidin-2-amine]	
< 100 nM	< 500 nM	Cc1c(N2Cc3nc(Nc4ccc(CS(C)(=O)=O)cc4)ncc3C(F)(F)C2)cnc2c1NCCO2 [Example 152, 5,5-difluoro-N-[4-(methanesulfonylmethyl)phenyl]-7-{8-methyl-1H,2H,3H-pyrido[2,3-b][1,4]oxazin-7-yl}-5H,6H,7H,8H-pyrido[3,4-d]pyrimidin-2-amine]	
< 100 nM	< 500 nM	Cc1c(N2CCc3cnc(Nc4ccc(CC(=O)N5CC(OC(C)C)C5)cc4)nc3C2)cnc2c1NCCO2 [Example 174, 2-{4-[(7-{8-methyl-1H,2H,3H-pyrido[2,3-b][1,4]oxazin-7-yl}-5H,6H,7H,8H-pyrido[3,4-d]pyrimidin-2-yl)amino]phenyl}-1-[3-(propan-2-yloxy)azetidin-1-yl]ethan-1-one]	
< 100 nM	500 to 1000 nM	Cc1c(N2CCc3cnc(Nc4ccc(C(C)(C)S(C)(=O)=O)cc4)nc3C2)cnc2c1NCCO2 [Example 186, N-[4-(2-methanesulfonylpropan-2-yl)phenyl]-7-{8-methyl-1H,2H,3H-pyrido[2,3-b][1,4]oxazin-7-yl}-5H,6H,7H,8H-pyrido[3,4-d]pyrimidin-2-amine]	
< 100 nM	500 to 1000 nM	Cc1c(N2CCc3cnc(Nc4ccc(N5CCC(O)CC5)cc4)nc3C2)cnc2c1NCCO2 [Example 111, 1-(4-((7-(8-methyl-2,3-dihydro-1H-pyrido[2,3-b][1,4]oxazin-7-yl)-5,6,7,8-tetrahydropyrido[3,4-d]pyrimidin-2-yl)amino)phenyl)piperidin-4-ol]	
< 100 nM	< 500 nM	Cc1c(N2CCc3cnc(Nc4ccc([C@H](C)S(C)(=O)=O)cc4)nc3C2)cnc2c1NCCO2 (single isomer, unassigned) [Example 157]	
